This passage reports IC50 results from BindingDB's records for doi:10.1021/acsmedchemlett.7b00315 (Astrazeneca, 2017).

Experiment [1] is described as follows: Antagonist activity at human CCR4 expressed in Th2 cells coexpressing CD45RA+ assessed as inhibition of CCL17 induced chemotaxis.
The nature of experiment [2]: Antagonist activity at human CCR4 expressed in Th2 cells coexpressing CD45RA+ assessed as inhibition of CCL22 induced chemotaxis.
A short description of experiment [3]: Antagonist activity at CCR4 in human primary Th2 cells by chemotaxis assay.

With `COc1nccnc1NS(=O)(=O)c1cccc(Cl)c1Cl`, the IC50 in experiment [1] and in experiment [2] was 501 nM in each case.

Take `COc1nc(F)cnc1NS(=O)(=O)c1cccc(Cl)c1Cl`: the IC50 is 316 nM in experiment [1] and 158 nM in experiment [2].

With `COc1nc(Br)cnc1NS(=O)(=O)c1ccc(Cl)s1`, in experiment [3], the 50% inhibitory concentration (IC50) is 200 nM.
